Experimental data: US8178506B2, “Oligomeric compounds and compositions for use in modulation of small non-coding RNAs” (Regulus Therapeutics Inc., priority 2003, dated 2012)
In the oligonucleotide strings, read from the 5' end, every base follows the letter of its sugar. An asterisk marks phosphorothioate; unmarked linkages are phosphodiester. Other units and linkages are bracketed, terminal groups are in braces. A string of capitals states the bases alone. e = 2'-O-(2-methoxyethyl) (MOE); [5mC] = 5-methylcytosine; d = 2'-deoxy (DNA)

System: mir-15a pri-miRNA
Assay: mir-15a pri-miRNA expression in HepG2 cells (real-time RT-PCR)
Format: cell-based, human
Details: for Expression of mir-15a pri-miRNA (% UTC): HepG2 cells, 100 nM, real-time RT-PCR; for expression of the mir-15a pri-miRNA molecule: HepG2, 100 nM
Experimental: Using the real-time RT-PCR methods described in Example 19, the expression levels of the mir-15a pri-miRNA were compared in HepG2 cells treated with a nested series of chimeric gapmer oligomeric compounds, targeting and spanning the entire length of the mir-15a pri-miRNA; these compounds are shown in Table 45, below. […] All cytidine residues are 5-methylcytidines. Using the transfection methods described herein, HepG2 cells were treated with 100 nM of each of these gapmer oligomeric compounds. Total RNA was isolated from HepG2 cells by lysing cells in 1 mL TRIZOL™ (Invitrogen) using the manufacturer's recommended protocols. Real-time RT-PCR analysis was performed using a primer/probe set specific for the mir-15a pri-miRNA molecule to assess the effects of these compounds on expression of the mir-15a pri-miRNA molecule. ISIS 339317 ([…]; SEQ ID NO.: 885) was used as the forward primer, ISIS 339318 (TGGCCTGCACCTTTTCAAA; SEQ ID NO.: 886) was used as the reverse primer, and ISIS 339319 ([…]; SEQ ID NO.: 887) was used as the probe. Total RNA was quantified using RiboGreen™ RNA quantification reagent (Molecular Probes, Inc. Eugene, Oreg.), expression levels observed for each target are normalized to 5.8S rRNA, and values are expressed relative to the untreated control. Inhibition of expression of the mir15a pri-miRNA by these gapmer oligomeric compounds is expressed as a percentage of RNA levels in untreated control cells.

Row | Substance | Expression of mir-15a pri-miRNA (% UTC) | expression of the mir-15a pri-miRNA molecule
1 | 347972 (eA*eG*e[5mC]*eA*e[5mC]*dA*dA*dT*dA*dT*dG*dG*d[5mC]*d[5mC]*dT*eG*e[5mC]*eA*e[5mC]*e[5mC]; antisense) [compound 347972] | 98.6 | –
2 | ISIS 347964: 5-10-5 2′-MOE gapmer PS; targets mir-15a pri-miRNA (antisense eT*eA*eT*eA*eA*d[5mC]*dA*dT*dT*dG*dA*dT*dG*dT*dA*eA*eT*eA*eT*eG) | – | significant inhibition of expression of the mir-15a pri-miRNA molecule
3 | 347964 (eT*eA*eT*eA*eA*d[5mC]*dA*dT*dT*dG*dA*dT*dG*dT*dA*eA*eT*eA*eT*eG; antisense) [compound 347964] | 13.7 | –
4 | 347974 (eT*eG*eA*eG*eG*d[5mC]*dA*dG*d[5mC]*dA*d[5mC]*dA*dA*dT*dA*eT*eG*eG*e[5mC]*e[5mC]; antisense) [compound 347974] | 98.1 | –
5 | 347970 (eA*eT*eA*eT*eG*dG*d[5mC]*d[5mC]*dT*dG*d[5mC]*dA*d[5mC]*d[5mC]*dT*eT*eT*eT*e[5mC]*eA; antisense) [compound 347970] | 2.2 | –
6 | 347978 (eT*e[5mC]*e[5mC]*eT*eT*dG*dT*dA*dT*dT*dT*dT*dT*dG*dA*eG*eG*e[5mC]*eA*eG; antisense) [compound 347978] | 51.1 | –
7 | 347979 (eA*eG*eA*eT*e[5mC]*d[5mC]*dT*dT*dG*dT*dA*dT*dT*dT*dT*eT*eG*eA*eG*eG; antisense) [compound 347979] | 74.9 | –
8 | ISIS 347973: 5-10-5 2′-MOE gapmer PS; targets mir-15a pri-miRNA (antisense eG*eG*e[5mC]*eA*eG*d[5mC]*dA*d[5mC]*dA*dA*dT*dA*dT*dG*dG*e[5mC]*e[5mC]*eT*eG*e[5mC]) | – | stimulate an increase in expression levels of the mir-15a pri-miRNA
9 | ISIS 347977: 5-10-5 2′-MOE gapmer PS; targets mir-15a pri-miRNA (antisense eT*eT*eG*eT*eA*dT*dT*dT*dT*dT*dG*dA*dG*dG*d[5mC]*eA*eG*e[5mC]*eA*e[5mC]) | – | stimulate an increase in expression levels of the mir-15a pri-miRNA
10 | 347965 (eG*e[5mC]*eT*eA*e[5mC]*dT*dT*dT*dA*d[5mC]*dT*d[5mC]*d[5mC]*dA*dA*eG*eG*eT*eT*eT; antisense) [compound 347965] | 86.0 | –
11 | ISIS 347980: 5-10-5 2′-MOE gapmer PS; targets mir-15a pri-miRNA (antisense eA*eG*eA*eT*e[5mC]*dA*dG*dA*dT*d[5mC]*d[5mC]*dT*dT*dG*dT*eA*eT*eT*eT*eT) | – | significant inhibition of expression of the mir-15a pri-miRNA molecule
12 | 347971 (eA*e[5mC]*eA*eA*eT*dA*dT*dG*dG*d[5mC]*d[5mC]*dT*dG*d[5mC]*dA*e[5mC]*e[5mC]*eT*eT*eT; antisense) [compound 347971] | 92.8 | –
13 | ISIS 347970: 5-10-5 2′-MOE gapmer PS; targets mir-15a pri-miRNA (antisense eA*eT*eA*eT*eG*dG*d[5mC]*d[5mC]*dT*dG*d[5mC]*dA*d[5mC]*d[5mC]*dT*eT*eT*eT*e[5mC]*eA) | – | significant inhibition of expression of the mir-15a pri-miRNA molecule
14 | ISIS 347983: 5-10-5 2′-MOE gapmer PS; targets mir-15a pri-miRNA (antisense eA*eA*eA*eT*eA*dT*dA*dT*dT*dT*dT*d[5mC]*dT*dT*d[5mC]*eA*eG*eA*eA*eG) | – | significant inhibition of expression of the mir-15a pri-miRNA molecule
